According to patent US11883452B2, “Use of combination or composition of Radix et Rhizoma Notoginseng and aspirin” (CHINESE ACADEMY OF MEDICAL SCIENCES INSTITUTE OF MEDICINAL …, priority 2017, dated 2024):

What was measured:
Format in all cases: in vivo, SD rats
[1] = tested on: middle cerebral artery occlusion (MCAO/R) model rats; assay: Canine urea levels in serum, hippocampus and cerebral cortex by ELISA in MCAO/R rats
Experimental: Middle cerebral artery occlusion (MCAO) model was established by thread embolization method. The surgical procedure was carried out under strictly aseptic conditions mainly according to the following steps: The rats were anesthetized by intraperitoneal injection of ketamine (80 mg/kg) and xylazine (10 mg/kg). The common carotid artery (CCA), external carotid artery (ECA) and internal carotid artery (ICA) were fully exposed, the common carotid artery was clamped with a vascular clip, and the branches of the external carotid artery were electrocoagulated with a bipolar electrocoagulation forceps. The main trunk of the external carotid artery was freed and ligated at 3 to 4 mm from the bifurcation of the common carotid artery. The internal carotid artery was temporarily clamped with a vascular clip. Corneal scissors were used to make a small incision in the external carotid artery. A 4-0 monofilament nylon thread coated with methylpolysiloxane was inserted and was tied a loose knot at the small incision of the external carotid artery to block the blood reflux of the internal carotid artery. The clip was removed from the internal carotid artery, and the nylon thread was gently pushed into the internal carotid artery to reach the intracranial anterior cerebral artery to block an incision of the middle cerebral artery (MCA), with an insertion depth of about 18-22 mm. The clip was removed from the common carotid artery, and the subcutaneous tissue and skin were sutured layer by layer after disinfection, and 2 hours later the nylon thread was slowly withdrawn to perform reperfusion for 24 hours. The operation to the sham operated group is the same as the above except that nylon thread is not inserted. The rectum of all rats was maintained at a temperature of 37° C. throughout the experiment.
5 mL of blood was taken from the abdominal aorta of the rats (n=8), and centrifuged at 3000 rpm for 10 min to obtain a serum. Hippocampus and cerebral cortex were separated from the brain tissue, homogenized, and centrifuged at 3000 rpm for 10 min to obtain a supernatant. Serum MDA, SOD, CAT and GSH-Px levels were detected with kits available from Nanjing Jiancheng; levels of canine urea and inflammatory response indicators MCP-1, TNF-α, IL-1β, IL-4, IL-6 and IL-10 were detected with ELISA kits.

[2] = tested on: myocardial ischemia reperfusion injury model rats; assay: Three myocardial enzymes (AST, LDH, CK) in myocardial ischemia-reperfusion injury rats
Experimental: Rats in the groups treated with the total saponins from Radix et Rhizoma Notoginseng and/or aspirin were administrated intragastrically with the total saponins from Radix et Rhizoma Notoginseng and/or aspirin for a week, and rats in the sham operated group and model group were administrated intragastrically with an equivalent volume of distilled water. […] Real time electrocardiograms of the rats were recorded on a multi-lead physiological recorder available from AD Instruments. Thoracotomy was performed on the rats. An incision of 2 to 3 cm was made at a place between the 3rd and 4th ribs and about 0.5 cm from the left side of the sternum, a chest expander was used to open the ribs, and the pericardium was cut when exhaling to expose the heart. Myocardial ischemia was established by ligating the left coronary artery. […] After being stabilized for 5 minutes, the silk thread was passed through a disposable intravenous infusion hose with a length of about 3.5 cm. After the silk thread was pulled out, the silk thread was gently lifted, and the hose was pushed down and was fixed with a hemostatic forceps. […] The ligation was considered successful if: the ST segment was elevated, and the color of local myocardial tissue changed from red to gray; and after 30 minutes of reperfusion, the ST segment fell by more than 50%, and the color of myocardial tissue changed from gray to red. After the reperfusion was completed, blood was taken from the abdominal aorta and analyzed on an automatic biochemical analyzer to detect the levels of three myocardial enzymes (AST, LDH, CK) in plasma.

[3] = tested on: middle cerebral artery occlusion (MCAO/R) model rats; assay: Neurological evaluation (Longa's five-grade score) in MCAO/R rats
[4] = tested on: myocardial ischemia reperfusion injury model rats; assay: Myocardial infarction volume by TTC staining in myocardial ischemia-reperfusion injury rats; conditions: x ± s
Experimental: 240 male SD rats were randomly divided into 8 groups, with 30 rats in each group, including a sham operated group, a myocardial ischemia reperfusion injury model group, a group treated with the total saponins from Radix et Rhizoma Notoginseng at a dosage of 50 mg/kg, a group treated with aspirin at a dosage of 10 mg/kg, a group treated with aspirin at a dosage 5 mg/kg, a group treated with the combination of the total saponins from Radix et Rhizoma Notoginseng at a dosage of 50 mg/kg and aspirin at a dosage of 5 mg/kg. […]
The rats were anesthetized by intraperitoneal injection of pentobarbital sodium at a dose of 40 mg/kg body weight, and were connected to a small animal ventilator through an oral cannula, with a respiratory rate of 70 breaths/min, a respiratory ratio of 1:1, and a tidal volume of 1 mL. Real time electrocardiograms of the rats were recorded on a multi-lead physiological recorder available from AD Instruments. […]
Myocardial infarction volumes were evaluated by triphenyl tetrazolium chloride (TTC) staining. […] Myocardial infarction volumes were evaluated and calculated using Image-Pro plus 5.1 software

[5] = tested on: platelets in platelet-rich plasma; assay: Maximum platelet aggregation rate (ADP-induced, platelet-rich plasma) in MCAO/R rats; conditions: ADP 2 μmol/L
Experimental: 240 male SD rats were randomly divided into 8 groups, with 30 rats in each group, including a sham operated group, a middle cerebral artery occlusion (MCAO/R) model group, a group treated with the total saponins from Radix et Rhizoma Notoginseng at a dosage of 50 mg/kg, a group treated with aspirin at a dosage of 10 mg/kg, a group treated with aspirin at a dosage of 5 mg/kg, a group treated with the combination of the total saponins from Radix et Rhizoma Notoginseng at a dosage of 50 mg/kg and aspirin at a dosage of 5 mg/kg. The rats in the groups treated with the total saponins from Radix et Rhizoma Notoginseng and/or aspirin were administrated intragastrically with the total saponins from Radix et Rhizoma Notoginseng and/or aspirin for a week before MCAO, and the rats in the sham operated group and model group were administrated intragastrically with an equivalent volume of distilled water. […]
3.6 mL of blood was taken from the rats (n=10), anticoagulated with 3.8% sodium citrate (9:1), centrifuged at 150 g for 10 min to separate a platelet-rich plasma, and then centrifuged at 1500 g for 10 min to obtain a supernatant, which was platelet-poor plasma. […] Maximum aggregation within 5 minutes and maximum aggregation time of platelets in platelet-rich plasma were detected with a blood agglutination instrument.

[6] = tested on: middle cerebral artery occlusion (MCAO/R) model rats; assay: Cerebral infarction volume by TTC staining in MCAO/R rats; conditions: 24 hours of reperfusion
Experimental: 240 male SD rats were randomly divided into 8 groups, with 30 rats in each group, including a sham operated group, a middle cerebral artery occlusion (MCAO/R) model group, a group treated with the total saponins from Radix et Rhizoma Notoginseng at a dosage of 50 mg/kg, a group treated with aspirin at a dosage of 10 mg/kg, a group treated with aspirin at a dosage of 5 mg/kg, a group treated with the combination of the total saponins from Radix et Rhizoma Notoginseng at a dosage of 50 mg/kg and aspirin at a dosage of 5 mg/kg. The rats in the groups treated with the total saponins from Radix et Rhizoma Notoginseng and/or aspirin were administrated intragastrically with the total saponins from Radix et Rhizoma Notoginseng and/or aspirin for a week before MCAO, and the rats in the sham operated group and model group were administrated intragastrically with an equivalent volume of distilled water.
Middle cerebral artery occlusion (MCAO) model was established by thread embolization method. The surgical procedure was carried out under strictly aseptic conditions mainly according to the following steps: The rats were anesthetized by intraperitoneal injection of ketamine (80 mg/kg) and xylazine (10 mg/kg). […]
Cerebral infarction volumes were determined by triphenyl tetrazolium chloride (TTC) staining. […] Cerebral infarction volumes were evaluated and calculated using Image-Pro plus 5.1 software.

rat gastric mucosa = assay: HE staining to detect pathological changes of gastric mucosa; conditions: aspirin 10 mg/kg intragastrically daily for 4 weeks; rats
Experimental: (§1) 40 male SD rats were randomly divided into 4 groups, with 10 rats in each group, including a control group, a group treated with aspirin at a dosage of 10 mg/kg, a group treated with the total saponins from Radix et Rhizoma Notoginseng at a dosage of 100 mg/kg and aspirin at a dosage of 10 mg/kg, and a group treated with the total saponins from Radix et Rhizoma Notoginseng at a dosage of 100 mg/kg. The rats in the groups treated with the total saponins from Radix et Rhizoma Notoginseng and aspirin were administrated intragastrically with the total saponins from Radix et Rhizoma Notoginseng and aspirin daily for 4 weeks, and the rats in the control group were administrated intragastrically with an equivalent volume of normal saline daily.
After 4 weeks of administration, gastric tissues were taken from rats in each group and fixed with 4% formaldehyde solution, routinely embedded in paraffin and cut into slices, and stained with HE to observe the degree of inflammatory lesions in the tissues.

[7] = tested on: middle cerebral artery occlusion (MCAO/R) model rats; assay: Serum inflammatory factors by ELISA in MCAO/R rats
rat duodenal microvilli = assay: Ultrastructure of duodenal villi with transmission electron microscope; conditions: aspirin 10 mg/kg intragastrically daily for 4 weeks; rats
Experimental: as §1
After 4 weeks of administration, the duodenum was collected from rats in each group of rats and fixed in 2.5% glutaraldehyde buffer for 2 h, then washed with PH 7.4 buffer three times, and then soaked with 1% osmium tetroxide for 30 min, dehydrated with graded alcohol and acetone, and then embedded in epoxy resin 812. Ultra-thin slices were prepared, copper grids of 200 grid units were taken, the ultra-thin slices were again impregnated with uranyl acetate and lead citrate, and then analyzed under the electron microscope to observe changes in the ultrastructure of the duodenum in rats of each group.

[8] = aspirin 5 mg/kg intragastrically for a week
[9] = aspirin 10 mg/kg intragastrically for a week
[10] = aspirin 5 mg/kg intragastrically for a week before MCAO
[11] = aspirin 10 mg/kg intragastrically for a week before MCAO

For `CC(=O)Oc1ccccc1C(=O)O` [aspirin], the “Canine urea levels in cerebral cortex tissue” value ([1]; aspirin 5 mg/kg) was 8.95 µg/L, the “Canine urea levels in hippocampus” value ([1]; aspirin 5 mg/kg) was 2.11 µg/L and the “Canine urea levels in serum” value ([1]; aspirin 5 mg/kg) was 18.00 µg/L. The “Canine urea levels in cerebral cortex tissue” value ([1]; aspirin 10 mg/kg) was 8.12 µg/L, the “Canine urea levels in hippocampus” value ([1]; aspirin 10 mg/kg) was 2.01 µg/L and the “Canine urea levels in serum” value ([1]; aspirin 10 mg/kg) was 17.25 µg/L. For the same molecule, the “AST(U/L)” value [2, 8] was 312.48 U/L, the “CK(U/L)” value [2, 8] was 1823.49 U/L and the “LDH(U/L)” value [2, 8] was 1105.54 U/L. The “AST(U/L)” value [2, 9] was 204.32 U/L, the “CK(U/L)” value [2, 9] was 1222.54 U/L and the “LDH(U/L)” value [2, 9] was 811.85 U/L. The “Score (neurological deficit, Longa)” value [3, 10] was 1.83, the “Score (neurological deficit, Longa)” value [3, 11] was 1.08 and the “Myocardial infarction volume (%)” value [4, 8] was 9.88%. For the same molecule, the “Myocardial infarction volume (%)” value [4, 9] was 8.75%, the “Maximum platelet aggregation rate (%)” value [5, 8] was 56.80% and the “Maximum platelet aggregation rate (%)” value [5, 9] was 62.63%. The “Volume of cerebral infarction” value [6, 10] was 16.08, the “Volume of cerebral infarction” value [6, 11] was 13.96 and the “gastric mucosa pathology (HE staining) compared with the control group” value (rat gastric mucosa) was “gastric mucosal epithelial cells were necrotic and inflammatory cells infiltrated”. For the same molecule, the “IL-1β” value ([7]; aspirin 5 mg/kg) was 168.58 pg/mL, the “IL-4” value ([7]; aspirin 5 mg/kg) was 36.57 pg/mL and the “IL-6” value ([7]; aspirin 5 mg/kg) was 47.12 pg/mL. For the same molecule, the “IL-1β” value ([7]; aspirin 10 mg/kg) was 189.69 pg/mL, the “IL-4” value ([7]; aspirin 10 mg/kg) was 35.45 pg/mL and the “IL-6” value ([7]; aspirin 10 mg/kg) was 47.15 pg/mL. The “microvilli on the duodenal surface (electron microscope) compared with the control group” value (rat duodenal microvilli) was “the microvilli on the duodenal surface decreased”.
